We go through 15 compounds from US9265253B2, “Use of macrocyclic picolinamides as fungicides” (DOW AGROSCIENCES LLC, priority 2013, dated 2016).

Structures are written as SMILES. Read-outs that look alike come from different tables or passages of the source.

The test system of assay [1] is Mycosphaerella graminicola; Anamorph: Septoria tritici. Nature of the assay: Leaf Blotch of Wheat (SEPTTR) disease control. The assay is classed as in vivo. The following applies: for pest or weed control at 100 ppm / pest or weed control at 121.5 g/ha: Zymoseptoria tritici. As for the experimental part: (§1) Technical grades of materials were dissolved in acetone, which were then mixed with nine volumes of water containing 110 ppm Triton X-100. The fungicide solutions were applied onto wheat seedlings using an automated booth sprayer to run-off. All sprayed plants were allowed to air dry prior to further handling. All fungicides were evaluated using the aforementioned method for their activity vs. all target diseases. Wheat leaf blotch and brown rust activity were also evaluated using track spray applications, in which case the fungicides were formulated as EC formulations, containing 0.1% Trycol 5941 in the spray solutions. Wheat plants (variety Yuma) were grown from seed in a greenhouse in 50% mineral soil/50% soil-less Metro mix until the first leaf was fully emerged, with 7-10 seedlings per pot. These plants were inoculated with an aqueous spore suspension of Septoria tritici either prior to or after fungicide treatments. After inoculation the plants were kept in 100% relative humidity (one day in a dark dew chamber followed by two to three days in a lighted dew chamber at 20° C.) to permit spores to germinate and infect the leaf. The plants were then transferred to a greenhouse set at 20° C. for disease to develop. When disease symptoms were fully expressed on the 1st leaves of untreated plants, infection levels were assessed on a scale of 0 to 100 percent disease severity. Percent disease control was calculated using the ratio of disease severity on treated plants relative to untreated plants.

The test system of assay [2] is Puccinia triticina; Synonym: Puccinia recondite f. Sp. Tritici. Nature of the assay: Wheat Brown Rust (PUCCRT) disease control. The assay is classed as in vivo. To be noted: for pest or weed control at 100 ppm / pest or weed control at 121.5 g/ha: Puccinia triticina, topical. As to the method: as §1, with “plants. Wheat plants (variety Yuma) were grown from seed in a greenhouse in 50% mineral soil/50% soil-less Metro mix until the first leaf was fully emerged, with 7-10 seedlings per pot. These plants were inoculated with an aqueous spore suspension of Puccinia triticina either prior to or after fungicide treatments. After inoculation the plants were kept in a dark dew room at 22° C. with 100% relative humidity overnight to permit spores to germinate and infect the leaf. The plants were then transferred to a greenhouse set at 24° C. for disease to develop. Fungicide formulation, application and disease assessment followed the procedures as described in the Example A.” for “plants.”

[3] abbreviates: 24 h, 1 Day Protectant, rate 100 ppm, read-out: SEPTTR 1 DP disease control.
The mark [4] stands for this setting: 24 h, 1 Day Protectant, rate 121.5 g/H, read-out: SEPTTR 1 DP disease control.
The mark [5] stands for this setting: 72 h, 3 Day Curative, rate 100 ppm, read-out: SEPTTR 3 DC disease control.
Where [6] appears, read: 72 h, 3 Day Curative, rate 121.5 g/H, read-out: SEPTTR 3 DC disease control.
Where [7] appears, read: 24 h, 1 Day Protectant, rate 100 ppm, read-out: PUCCRT 1 DP disease control.
[8] abbreviates: 24 h, 1 Day Protectant, rate 121.5 g/H, read-out: PUCCRT 1 DP disease control.
Setting [9] is: 72 h, 3 Day Curative, rate 100 ppm, read-out: PUCCRT 3 DC disease control.
The mark [10] stands for this setting: 72 h, 3 Day Curative, rate 121.5 g/H, read-out: PUCCRT 3 DC disease control.
Where [11] appears, read: 24 h, Wheat Leaf Blotch, 1 Day Protectant, rate 100 ppm (high volume application), read-out: Disease control SEPTTR 1 DP.
Where [12] appears, read: 24 h, Wheat Leaf Blotch, 1 Day Protectant, rate 121.5 g/H (low volume application), read-out: Disease control SEPTTR 1 DP.
Where [13] appears, read: 72 h, Wheat Leaf Blotch, 3 Day Curative, rate 121.5 g/H (low volume application), read-out: Disease control SEPTTR 3 DC.
[14] abbreviates: 24 h, Wheat Brown Rust, 1 Day Protectant, rate 100 ppm (high volume application), read-out: Disease control PUCCRT 1 DP.
[15] abbreviates: 24 h, Wheat Brown Rust, 1 Day Protectant, rate 121.5 g/H (low volume application), read-out: Disease control PUCCRT 1 DP.
Where [16] appears, read: 72 h, Wheat Brown Rust, 3 Day Curative, rate 100 ppm (high volume application), read-out: Disease control PUCCRT 3 DC.
Setting [17] is: 72 h, Wheat Brown Rust, 3 Day Curative, rate 121.5 g/H (low volume application), read-out: Disease control PUCCRT 3 DC.

Regarding `COc1ccnc(C(=O)N[C@H]2CCC[C@H](Cc3ccc(F)cc3)[C@@H](OC(=O)C3CCCC3)[C@H](C)OC2=O)c1OCOC(C)=O` [Compound F104], the pest or weed control at 100 ppm in assay [1] (setting [3]), in assay [1] (setting [5]), in assay [2] (setting [7]) and in assay [2] (setting [9]) was 80 to 100% each time. Besides, the pest or weed control at 121.5 g/ha in assay [1] (setting [4]) fell in the range of 80 to 100%; in assay [1] (setting [6]), 80 to 100%; in assay [2] (setting [8]), 80 to 100%; in assay [2] (setting [10]) it was 0 to 80%.

For the compound `COc1ccnc(C(=O)N[C@H]2CCC[C@H](CCC(C)C)[C@@H](OC3CCCC3)[C@H](C)OC2=O)c1O` [Compound F6], the pest or weed control at 100 ppm in assay [1] (setting [3]), in assay [1] (setting [5]), in assay [2] (setting [7]) and in assay [2] (setting [9]) was 80 to 100% in each case.

For `CCOCC(=O)OCOc1c(OC)ccnc1C(=O)N[C@H]1CCC[C@H](CCC(C)C)[C@@H](OCC(C)C)[C@H](C)OC1=O` [Compound F159], the pest or weed control at 100 ppm in assay [1] (setting [3]), in assay [1] (setting [5]), in assay [2] (setting [7]) and in assay [2] (setting [9]) was 80 to 100% throughout. Further, the pest or weed control at 121.5 g/ha in assay [1] (setting [4]) is 80 to 100%; in assay [1] (setting [6]), 80 to 100%; in assay [2] (setting [8]) it was 80 to 100%; in assay [2] (setting [10]) it was 0 to 80%.

In the case of `CCOCC(=O)OCOc1c(OC)ccnc1C(=O)N[C@H]1CCC[C@H](CCOCC2CC2)[C@@H](OCC2CC2)[C@H](C)OC1=O` [Compound F191], the pest or weed control at 100 ppm in assay [1] (setting [11]), in assay [2] (setting [14]) and in assay [2] (setting [16]) was 80 to 100% each time. The pest or weed control at 121.5 g/ha in assay [1] (setting [12]) lay in the range of 0 to 80%; in assay [1] (setting [13]), 0 to 80%; in assay [2] (setting [15]) it was 80 to 100%; in assay [2] (setting [17]), 80 to 100%.

Take `COc1ccnc(C(=O)N[C@H]2CCC[C@H](CCC(C)C)[C@@H](OCC3CC3)[C@H](C)OC2=O)c1O` [Compound F3]: the pest or weed control at 100 ppm in assay [1] (setting [3]), in assay [1] (setting [5]), in assay [2] (setting [7]) and in assay [2] (setting [9]) was 80 to 100% in each case.

Take `COc1ccnc(C(=O)N[C@H]2CCC[C@H](CC3CCCCC3)[C@@H](OCC3CC3)[C@H](C)OC2=O)c1O` [Compound F9, N-((3S,7R,8R,9S)-7-(cyclohexylmethyl)-8-(cyclopropylmethoxy)-9-methyl-2-oxooxonan-3-yl)-3-hydroxy-4-methoxypicolinamide]: the pest or weed control at 100 ppm in assay [1] (setting [3]), in assay [1] (setting [5]), in assay [2] (setting [7]) and in assay [2] (setting [9]) was 80 to 100% throughout.

In the case of `COc1ccc(C[C@H]2CCC[C@H](NC(=O)c3nccc(OC)c3OC(C)=O)C(=O)O[C@@H](C)[C@@H]2OCC2CC2)cc1` [Compound F72], the pest or weed control at 100 ppm in assay [1] (setting [3]), in assay [1] (setting [5]), in assay [2] (setting [7]) and in assay [2] (setting [9]) was 80 to 100% each time. Further, the pest or weed control at 121.5 g/ha in assay [1] (setting [4]) lay in the range of 80 to 100%; in assay [1] (setting [6]) it was 80 to 100%; in assay [2] (setting [8]), 80 to 100%; in assay [2] (setting [10]), 0 to 80%.

For `COCCC(=O)Oc1c(OC)ccnc1C(=O)N[C@H]1CCC[C@H](Cc2ccc(OC)cc2)[C@@H](OCC2CC2)[C@H](C)OC1=O` [Compound F195, 2-(((3S,7R,8R,9S)-8-(cyclopropylmethoxy)-7-(4-methoxybenzyl)-9-methyl-2-oxooxonan-3-yl)carbamoyl)-4-methoxypyridin-3-yl 3-methoxypropanoate], the pest or weed control at 100 ppm fell in the range of 80 to 100% in assay [1] (setting [11]); 80 to 100% in assay [1] (72 h, Wheat Leaf Blotch, 3 Day Curative, rate 100 ppm (high volume application), read-out: Disease control SEPTTR 3 DC); 80 to 100% in assay [2] (setting [14]); 80 to 100% in assay [2] (setting [16]). Besides, the pest or weed control at 121.5 g/ha in assay [1] (setting [12]) was 80 to 100%; in assay [1] (setting [13]) it was 80 to 100%; in assay [2] (setting [15]), 80 to 100%; in assay [2] (setting [17]), 0 to 80%.

Turning to `COc1ccnc(C(=O)N[C@H]2CCC[C@H](Cc3ccc(F)cc3)[C@@H](Oc3ccccc3)[C@H](C)OC2=O)c1O` [Compound F11], the pest or weed control at 100 ppm in assay [1] (setting [3]) was in the range of 80 to 100%; in assay [1] (setting [5]) it was 80 to 100%; in assay [2] (setting [7]), 80 to 100%; in assay [2] (setting [9]), 0 to 80%.

On to `COc1ccnc(C(=O)N[C@H]2CCC[C@H](CC3CCCC3)[C@@H](OCC3CC3)[C@H](C)OC2=O)c1OC(C)=O` [Compound F73], for which the pest or weed control at 100 ppm in assay [1] (setting [3]), in assay [1] (setting [5]), in assay [2] (setting [7]) and in assay [2] (setting [9]) was 80 to 100% in each case. In addition, the pest or weed control at 121.5 g/ha in assay [1] (setting [4]), in assay [1] (setting [6]), in assay [2] (setting [8]) and in assay [2] (setting [10]) was 80 to 100% each time.

On to `CCO[C@@H]1[C@@H](Cc2ccccc2)CCC[C@H](NC(=O)c2nccc(OC)c2O)C(=O)O[C@H]1C` [Compound F23], for which the pest or weed control at 100 ppm in assay [1] (setting [3]), in assay [1] (setting [5]), in assay [2] (setting [7]) and in assay [2] (setting [9]) was 80 to 100% in each case.

In the case of `COc1ccnc(C(=O)N[C@H]2CCC[C@H](Cc3ccc(F)cc3)[C@@H](OCC(C)C)[C@H](C)OC2=O)c1O` [Compound F14], the pest or weed control at 100 ppm in assay [1] (setting [3]), in assay [1] (setting [5]), in assay [2] (setting [7]) and in assay [2] (setting [9]) was 80 to 100% each time.

As for `COc1ccnc(C(=O)N[C@H]2CCC[C@H](CCBr)[C@@H](Oc3ccccc3)[C@H](C)OC2=O)c1O` [Compound F50], the pest or weed control at 100 ppm in assay [1] (setting [3]), in assay [1] (setting [5]), in assay [2] (setting [7]) and in assay [2] (setting [9]) was 80 to 100% in each case.

As for `COc1ccnc(C(=O)N[C@H]2CCC[C@H](Cc3ccc(F)cc3)[C@@H](OCC(F)F)[C@H](C)OC2=O)c1O` [Compound F15], the pest or weed control at 100 ppm in assay [1] (setting [3]), in assay [1] (setting [5]), in assay [2] (setting [7]) and in assay [2] (setting [9]) was 80 to 100% in each case.

On to `COc1ccnc(C(=O)N[C@H]2CCC[C@H](Cc3ccc(C)cc3)[C@@H](OCCCC(F)(F)F)[C@H](C)OC2=O)c1O` [Compound F55], for which the “SEPTTR 1 DP disease control” value in assay [1] (1 Day Protectant, rate 100 ppm) is “A (80-100)”. Also, in assay [1] (3 Day Curative, rate 100 ppm), the “SEPTTR 3 DC disease control” value is recorded as “B (More than 0-Less than 80)”. Also, the “PUCCRT 1 DP disease control” value in assay [2] (1 Day Protectant, rate 100 ppm) is “A (80-100)”.
